From ChEMBL document CHEMBL4819155, “Phenolic compounds from the leaves of Crataegus pinnatifida Bge. var. major N.E.Br. And their lipid-lowering effects” (2021)
Active and inactive are the calls of the source. The calls are words filed in the database; no cut-off is given here.

What was measured:
[1] = tested on: HepG2; test: Hypolipidemic activity against oleic acid/palmitic acid-induced hyperlipidemia in human HepG2 cells assessed as reduction in triglycerides content; assay type: functional, cell-based
[2] = tested on: HepG2; test: Hypolipidemic activity against oleic acid-induced lipid accumulation in human HepG2 cell model assessed reduction in total cholesterol level; assay type: functional, cell-based
[3] = tested on: HepG2; test: Hypolipidemic activity against oleic acid/palmitic acid-induced hyperlipidemia in human HepG2 cells assessed as triglycerides content measured per gm of protein; assay type: functional
[4] = tested on: HepG2; test: Hypolipidemic activity against oleic acid/palmitic acid-induced hyperlipidemia in human HepG2 cells assessed as decrease in triglycerides level at 0.001 to 1 uM; assay type: functional, cell-based; settings: dose 0.001-1 µM
[5] = tested on: HepG2; test: Hypolipidemic activity against oleic acid/palmitic acid-induced hyperlipidemia in human HepG2 cells assessed reduction in total cholesterol level at 0.001 to 10 uM; assay type: functional, cell-based; settings: dose 0.001-10 µM
[6] = tested on: HepG2; test: Hypolipidemic activity against oleic acid/palmitic acid-induced hyperlipidemia in human HepG2 cells assessed as reduction in triglycerides content relative to control group; assay type: functional
[7] = tested on: HepG2; test: Hypolipidemic activity against oleic acid/palmitic acid-induced hyperlipidemia in human HepG2 cells assessed as decrease in triglycerides level at 0.01 to 1 uM; assay type: functional, cell-based; settings: dose 0.01-1 µM
[8] = tested on: HepG2; test: Hypolipidemic activity against oleic acid/palmitic acid-induced hyperlipidemia in human HepG2 cells assessed reduction in total cholesterol level at 10 uM; assay type: functional, cell-based
[9] = tested on: HepG2; test: Hypolipidemic activity against oleic acid/palmitic acid-induced hyperlipidemia in human HepG2 cells assessed as decrease in triglycerides level at 0.001 to 10 uM; assay type: functional, cell-based; settings: dose 0.001-10 µM

Row | SMILES | Activity [1] | Activity [3] [mmol] | other results
1 | C[C@@H]1O[C@@H](O[C@@H]2[C@@H](O)[C@H](O)[C@@H](CO)O[C@H]2c2c(O)cc(O)c3c(=O)cc(-c4ccc(O)cc4)oc23)[C@H](O)[C@H](O)[C@H]1O | Active | – | –
2 | COc1cc(CO[C@@H]2O[C@H](CO)[C@@H](O)[C@H](O)[C@H]2O)cc(OC)c1OC | Active | – | –
3 | Oc1cc(O)c2c(c1)O[C@H](c1ccc(O)c(O)c1)[C@H](O)C2 | Active | – | –
4 | O=c1c(O[C@@H]2O[C@H](CO)[C@H](O)[C@H](O)[C@H]2O)c(-c2ccc(O)c(O)c2)oc2cc(O)cc(O)c12 | Active | – | –
5 | O=C1C[C@@H](c2ccc(O)c(O)c2)c2c(cc3c(c2O)C[C@@H](O)[C@@H](c2ccc(O)c(O)c2)O3)O1 | Active | – | –
6 | O=c1c(O)c(-c2ccc(O)c(O)c2)oc2cc(O)cc(O)c12 | Active | – | –
7 | CCC(C)(C)C(=O)O[C@H]1C[C@@H](C)C=C2C=C[C@H](C)[C@H](CC[C@@H]3C[C@@H](O)CC(=O)O3)[C@H]21 | Active | – | Activity [2]: Active
8 | O=C1C[C@@H](c2ccc(O)c(O)c2)c2c(cc(O)c3c2O[C@H](c2cc(O)cc(O)c2)[C@H](O)C3)O1 | – | 0.28 | Activity [4]: Dose-Dependent Effect; Activity [5]: Dose-Dependent Effect; inhibition (INH) [6]: 34.92%
9 | O=c1cc(-c2ccc(O)cc2)oc2c([C@@H]3O[C@H](CO)[C@@H](O)[C@H](O)[C@H]3O)c(O)cc(O)c12 | – | 0.283 | Activity [7]: Dose-Dependent Effect; Activity [5]: Dose-Dependent Effect; inhibition ([6]; dose or concentration not given here): 34.6%
10 | O=C(/C=C/c1ccc(O)c(O)c1)O[C@@H]1C[C@](O)(C(=O)O)C[C@@H](O)[C@H]1O | Active | – | –
11 | O=c1cc(-c2ccc(O)cc2)oc2c([C@@H]3O[C@H](CO)[C@@H](O[C@@H]4O[C@H](CO)[C@@H](O)[C@H](O)[C@H]4O)[C@H](O)[C@H]3O)c(O)cc(O)c12 | – | 0.28 | Activity [8]: Active; inhibition (INH) [6]: 35.34%; Activity [9]: Active
12 | Oc1cc(O)c2c(c1)O[C@H](c1ccc(O)c(O)c1)[C@@H](O)C2 | Active | – | –
13 | O=c1c(O[C@@H]2O[C@H](CO)[C@@H](O)[C@H](O)[C@H]2O)c(-c2ccc(O)c(O)c2)oc2cc(O)cc(O)c12 [ISOQUERCETIN] | – | 0.308 | Activity [2]: inactive; inhibition (INH) [6]: 30.42%; Activity [9]: Active
